Like-named read-outs stand apart in the source and are kept apart here.
Assays:
[1] = tested on: passively sensitized Rat Mast Cells; assay: Rat Mast Cell (RMC) test: inhibition of histamine release from passively sensitized Rat Mast Cells; assay type: cell-based; settings: for IC50: Mast cell, histamine release, passively sensitized rat mast cells, read-out: I50 value in the RMC test; for RMC % inh.: at 50 μm (number in parentheses)
Text: In addition, the compounds of this invention have potent activity as inhibitors of histamine release from passively sensitized Rat Mast Cells according to the porcedure described by E. Kusner, et al., Journal of Pharmacology and Experimental Therapeutics, 184, 41 (1973).

[2] = tested on: Rat Passive Cutaneous Anaphylaxis; assay: Rat Passive Cutaneous Anaphylaxis (PCA) Screen: inhibition of wheal formation; assay type: in vivo; settings: for ED50: Rattus norvegicus; for inhibition of wheal formation in the PCA test: 10 mg/kg, intraperitoneal
Text: The compounds of this invention have potent activity in inhibiting the formation of a wheel when screened according to the Rat Passive Cutaneous Anaphylaxis (PCA) Screen as described by I. Mota, Life Sciences, 7, 465 (1963) and Z. Ovary, et al. Proceedings of Society of Experimental Biology and Medicine, 81, 584 (1952).

[3] = PO, 25 mg/kg (number in parentheses)
[4] = PO, 125 mg/kg (number in parentheses)

## COC(=O)c1nc2cc(Cl)c3cccnc3c2o1 [Example 1C, 2-Carbomethoxy-5-chloro-1,3-oxazolo-[4,5-h]quinoline]
[1]
  IC50: 300 nM
[2]; ip, intraperitoneal route, read-out: E50 value in PCA test
  ED50: 0.5 mg/kg
[2]; oral route, read-out: E50 value in PCA test
  ED50: 1 mg/kg

## CCOC(=O)c1nc2cc(Cl)c3cccnc3c2o1 [Example 4, 2-carboethoxy-5-chloro-1,3-oxazolo-[4,5-h]quinoline]
[1]
  IC50: 100 nM
[2]
  inhibition of wheal formation in the PCA test: 59%

## O=C([O-])c1nc2cc(Cl)c3cccnc3c2o1.[Na+] [Example 14, 5-chloro-1,3-oxazolo-[4,5-h]quinoline-2-carboxylate, sodium salt]
[1]
  IC50: 100 nM
[2]
  inhibition of wheal formation in the PCA test: 51%

## O=c1[nH]c2ccc3cccnc3c2o1 [Example 18, 2-Oxo-3H-oxazolo[4,5-h]quinoline]
[1]
  RMC % inh.: < 30%
[2]; IP, Table I, read-out: PCA ED50 IP
  ED50: 10 mg/kg
[2]; PO, Table I, read-out: PCA ED50 PO
  ED50: 4 mg/kg

## O=c1[nH]c2cc(Cl)c3cccnc3c2o1 [Example 19]
[2]; [3]
  PCA % inh. PO: 0%

## CC(=O)n1c(=O)oc2c3ncccc3ccc21 [Example 20, 3-Acetyl-2-oxo-3H-oxazolo[4,5-h]quinoline]
[1]
  RMC % inh.: 18%
[2]; [4]
  PCA % inh. PO: 14%

## COc1cccc(C(=O)n2c(=O)oc3c4ncccc4c(Cl)cc32)c1 [Example 22]
[2]; PO, 100 mg/kg (number in parentheses)
  PCA % inh. PO: 43%

## CC(C(=O)n1c(=O)oc2c3ncccc3c(Cl)cc21)c1ccccc1 (centres unmarked) [Example 23]
[1]
  RMC % inh.: 16%
[2]; IP, 125 mg/kg (number in parentheses)
  PCA % inh. IP: 34%

## CN(C)C(=O)n1c(=O)oc2c3ncccc3c(Cl)cc21 [Example 24]
[1]
  RMC % inh.: 18%
[2]; [3]
  PCA % inh. PO: 0%

## Cn1c(=O)oc2c3ncccc3c(Cl)cc21 [Example 25, 5-Chloro-3-methyl-2-oxo-3H-oxazolo[4,5-h]quinoline]
[1]
  RMC % inh.: 0%
[2]; [4]
  PCA % inh. PO: 51%
